Laboratory results as given in patent publication US6528501B1, “22s-hydroxycholesta-8, 14-diene derivatives with meiosis regulating activity” (Akzo Nobel N.V., priority 1998, dated 2003).

Columns and labels:
denuded oocytes (DO) = experiment: Oocyte assay, denuded oocytes (DO): overcoming hypoxanthine maintained meiotic arrest; assay type: cell-based, mice (B6D2-F1, strain C57BL×DBA); settings: 22 hours culture, hypoxanthine 4 mM, control value in parentheses
Procedure: (§1) The meiosis activating activity of the […]-hydroxycholesta-8,14-diene derivatives of the invention is measured in an in vitro oocyte assay as the ability to overcome the hypoxanthine maintained meiotic arrest in denuded oocytes (DO) or cumulus enclosed oocytes (CEO). Oocytes arrested in meiosis contain diffused chromosomes which are surrounded by an intact nuclear envelope known as the germinal vesicle (GV). Upon reinitiation of meiosis by the […] gonadotropin surge, the chromosomes recondense and the GV breaks down (GVBD). In vivo, the oocyte is exposed to hypoxanthine (HX), which maintains the oocyte arrested in the meiotic prophase. This meiotic arrest can be mimicked in vitro by addition of hypoxanthine to the culture medium. The agonistic activity of the meiosis activating substances is measured as the ability to overcome the hypoxanthine maintained meiotic arrest in denuded oocytes (DO) or cumulus enclosed oocytes (CEO), i.e. as the ability to induce meiotic resumption in vitro. Ovaries are obtained from immature female mice (B6D2-F1, strain C57BL×DBA). At the age of 19, 20 or 21 days the mice are injected subcutaneously with a single dose of 20 IU follicle stimulating hormone (Humegon, Organon, The Netherlands) in saline. Forty-eight hours after follicle stimulating hormone injection mice are killed by cervical dislocation. The ovaries are removed, freed of extraneous tissue and placed in a multidish containing 0.5 ml preparation medium at 37° C. […] At t=0 the number of oocytes with intact germinal vesicles (GV) or germinal vesicle break-down (GVBD) is counted under an inverted microscope with differential interference contrast equipment. […] At the end of the culture period the number of oocytes with GV or GVBD per group is counted. For statistical analysis the percentage germinal vesicle breakdown is calculated for each group in one block. These percentages are subjected to arcsin transformation, and differences between control and test compounds are analyzed by an ANOVA test for a randomized block design.

[1] = test system: cumulus enclosed oocytes (CEO); experiment: Oocyte assay, cumulus enclosed oocytes (CEO): overcoming hypoxanthine maintained meiotic arrest; assay type: cell-based, mice (B6D2-F1, strain C57BL×DBA); settings: 22 hours culture, hypoxanthine 4 mM, control value in parentheses
Procedure: as §1

meiosis = settings: disclosed in WO 98/28323; cited from earlier work
[2] = test system: cultured cumulus enclosed and naked mouse oocytes; settings: cited from earlier work

What does the source list for `CC(C)=CC[C@H](O)[C@@H](C)[C@H]1CC=C2C3=C(CC[C@@]21C)[C@@]1(C)CC[C@H](O)C(C)(C)[C@@H]1CC3` [Example 2, (3β,5α,20S,22S )-4,4-Dimethylcholesta-8,14,24-triene-3,22-diol]?
% GVBD DO assay exp. (denuded oocytes (DO); 5 μM): 97(2) %; % GVBD CEO assay exp. ([1]; 5 μM): 73(2) %; melting point: 106 to 108 °C

Which results are given for `CC(C)CC[C@H](O)[C@@H](C)[C@H]1CC=C2C3=C(CC[C@@]21C)[C@@]1(C)CC[C@H](O)C(C)(C)[C@@H]1CC3` [Example 1, (3β,5α,20S ,22S)-4,4-Dimethylcholesta-8,14-diene-3,22-diol]?
% GVBD DO assay exp. (denuded oocytes (DO); 5 μM): 85(0) %; % GVBD CEO assay exp. ([1]; 5 μM): 6(3) %; melting point: 142 to 143 °C

Which “agonist/antagonist of meiosis activating substance” value (meiosis) does the source give for `CC(C)CC[C@@H](O)[C@@H](C)[C@H]1CC[C@H]2[C@@H]3CC=C4C[C@@H](O)CC[C@]4(C)[C@H]3CC[C@]12C` [22R-hydroxycholesterol] here?
Its value is “antagonist”.

For `CC(C)=CCC[C@@H](C)[C@H]1CC=C2C3=C(CC[C@@]21C)[C@@]1(C)CC[C@H](O)C(C)(C)[C@@H]1CC3` [FF-Mas, (3β,5α,20R)-4,4-dimethylcholesta-8,14,24-trien-3-ol], which “% GVBD DO assay exp.” value (denuded oocytes (DO); 10 μM) is on record?
Its value is 84(7) %.

And the “% GVBD CEO assay exp.” value ([1]; 10 μM)?
Its value is 0(0) %.

And the “ability to activate the resumption of meiosis” value [2]?
The value was “able to activate the resumption of meiosis”.

For `CC(C)=CCC[C@@H](C)[C@H]1CC[C@H]2C3=C(CC[C@]12C)[C@@]1(C)CC[C@H](O)C(C)(C)[C@@H]1CC3` [(3β,5α,20R)-4,4-dimethylcholesta-8,24-dien-3-ol], which “ability to activate the resumption of meiosis” value [2] is on record?
Its value is “able to activate the resumption of meiosis”.
